Test results: US20230226212A1, “MUSCLE-TARGETING COMPLEXES AND USES THEREOF” (Dyne Therapeutics, Inc., priority 2020, published 2023)
Where two headings read alike, the source gives them in different places.

Experiments:
[1] = system: DMPK; assay: DMPK knockdown by unconjugated PMOs in primary human myotubes (Example 23); format: cell-based; conditions: unconjugated PMO; 3 days; qPCR
Experimental: Additional DMPK targeting oligonucleotides (PMOs) were designed and tested for their activity in reducing DMPK expression in primary human myotubes. Wild-type primary myoblasts were cultured in PromoCell Skeletal Muscle growth medium with 5% FBS and penicillin/streptomycin until nearly confluent. Cells were then seeded into a 96 well plate at 50000 cells per well and allowed to recover for 24 hours. Cells were then differentiated in a differentiation medium of DMEM with glutamine and penicillin/streptomycin for 7 days. Cells were then treated with the unconjugated PMO for 3 days. Total RNA was collected from cells, cDNA was synthesized and DMPK expression was measured by qPCR.

[2] = system: mdx mice; assay: open field chamber with hind limb fatigue challenge in mdx mice (Example 14); format: in vivo, mouse; conditions: single i.v. dose 30 mg/kg, two weeks after injection, hind limb fatigue challenge between stages
Experimental: (§1) Each experimental condition was replicated in five mdx mice. Five wild-type mice (healthy mice) were also dosed with vehicle control (saline).
Two weeks after injection, the functional activity of all treated mice was determined using an open field chamber experiment. The experiment involved three consecutive stages: (1) a 10-minute period during which each mouse was placed into an open field chamber; (2) a 10-minute period during which each mouse was subjected to a hind limb fatigue challenge; and (3) a 10-minute period during which each mouse was placed into an open field chamber. The total horizontal distances traveled during stages (1) and (3) were collected. The percent change in the total distance traveled between the first and second tests.

[3] = system: mdx mice; assay: cage running wheel test in mdx mice (Example 14); format: in vivo, mouse; conditions: single i.v. dose 30 mg/kg, four weeks after injection, 24-hour period
Experimental: as §1
Four weeks after injection, the activity of all treated mice was determined using a cage running wheel test. Each mouse was individually placed into cages with a running wheel for a 24-hour period. The 24-hour period involved five hours of light on followed by thirteen hours of darkness, and ending with six hours of light. The total distance traveled (in meters, m) by each mouse on the running wheel was continuously collected throughout the 24-hour period and subsequently binned into discrete one-hour increments.

[4] = system: creatine kinase; assay: creatine kinase activity levels in mdx mice (Example 14); format: in vivo, mouse; conditions: single i.v. dose 30 mg/kg, two and four weeks after injection
Experimental: as §1
All mice in this Example were further tested for creatine kinase activity levels two weeks and four weeks after injection.

[5] = system: DUX4; assay: expression of DUX4-associated genes in FSHD patient-derived myotubes (Example 26); format: cell-based
Experimental: FSHD patient-derived myotubes were treated with FM-10 conjugated to an anti-TfRl Fab or naked FM-10. FM-10 has the sequence 5′-[…]-3′ (SEQ ID NO: 260). Expression of mRNA transcribed from three genes known to be only expressed following DUX4 activation was subsequently measured in the myotubes. Expression of these three DUX4-associated genes was reduced, as shown in FIG. 41A (naked oligonucleotide) and 41B (Ab-oligonucleotide).

[6] = system: DUX4; assay: expression of downstream DUX4 genes in U-2 OS cells (Example 12); format: cell-based, human; conditions: 72 hours
Experimental: Human U-2 OS cells were dosed with the complex. Briefly, U-2 OS cells were seeded at a density of 10 k cells/well before being allowed to recover overnight. […] Cells were incubated for 72 hours before being harvested for total RNA. cDNA was then synthesized from the total RNA extracts and qPCR was performed to determine expression of downstream DUX4 genes (ZSCAN4, MBD3L2, TRIM43) in technical quadruplicate. All qPCR data were analyzed using a standard ΔΔCT method and were normalized to a plate-based negative control comprised of untreated cells (i.e., without any oligonucleotide). Results were then converted to fold change to evaluate efficacy.

[7] = biological target: human transferrin receptor 1 (human) (UniProt P02786); assay: Carterra LSA biosensor, IgG captured on anti-IgG lawn, hTfR1 injected, 25C, 1:1 fit
Sequence of human transferrin receptor 1 (human) (P02786 89-760 limits assumed): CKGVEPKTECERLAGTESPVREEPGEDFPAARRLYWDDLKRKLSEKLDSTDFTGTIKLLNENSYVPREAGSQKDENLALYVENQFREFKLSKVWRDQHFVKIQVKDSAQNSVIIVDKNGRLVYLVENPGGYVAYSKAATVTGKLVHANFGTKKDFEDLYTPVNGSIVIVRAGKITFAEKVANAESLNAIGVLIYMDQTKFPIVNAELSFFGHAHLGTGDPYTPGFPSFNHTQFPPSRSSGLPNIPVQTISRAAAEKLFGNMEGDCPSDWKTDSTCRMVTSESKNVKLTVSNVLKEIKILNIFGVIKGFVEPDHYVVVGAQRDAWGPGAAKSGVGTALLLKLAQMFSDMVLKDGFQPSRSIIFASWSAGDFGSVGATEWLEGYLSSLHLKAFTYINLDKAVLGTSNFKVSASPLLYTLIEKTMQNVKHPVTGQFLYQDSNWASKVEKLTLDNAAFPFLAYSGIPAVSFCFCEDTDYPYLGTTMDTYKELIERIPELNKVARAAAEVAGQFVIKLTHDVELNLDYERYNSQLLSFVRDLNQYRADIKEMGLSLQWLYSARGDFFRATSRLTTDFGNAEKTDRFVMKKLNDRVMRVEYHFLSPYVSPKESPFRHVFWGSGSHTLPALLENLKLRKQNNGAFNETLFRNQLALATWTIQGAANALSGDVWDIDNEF

[8] = system: DMPK; assay: DMPK transcript knockdown by oligonucleotides in RD cells (Example 21); format: cell-based; conditions: free or transfected oligonucleotide, 3 days, relative to PBS-treated cells
Experimental: DMPK-targeting oligonucleotides (e.g., ASO) were tested in rhabdomyosarcoma (RD) cells for knockdown of DMPK transcript expression. RD cells were cultured in a growth medium of DMEM with glutamine, supplemented with 10% FBS and penicillin/streptomycin until nearly confluent. Cells were then seeded into a 96 well plate at 20 K cells per well and were allowed to recover for 24 hours. Cells were then treated with free DMPK-targeting oligonucleotides or by transfection of the oligonucleotides using 0.3 µL per well of Lipofectamine MessengerMAX transfection reagent. After 3 days, total RNA was collected from cells, cDNA was synthesized and DMPK expression was measured by qPCR.

[9] = system: DMPK; assay: DMPK expression in DM1 myotubes (Example 15); format: cell-based; conditions: dose-responsive
Text: (§2) The antisense oligonucleotides were further assessed to identify oligos that are safe in vivo (e.g., as indicated by low immunogenicity as measured by cytokine induction), and further based on manufacturability and secondary structure considerations. Three antisense oligonucleotides, […] (SEQ ID NO: 329, DMPK-ASO-1), […] (SEQ ID NO: 330, DMPK-ASO-2), and […] (SEQ ID NO: 331, DMPK-ASO-3) were selected. These oligonucleotides were then further evaluated for their ability to reduce DMPK expression in DM1 myotubes and NHP myotubes in a dose-responsive manner. The tool compound control DMPK-ASO was used as control.

[10] = system: DMPK; assay: DMPK expression in NHP myotubes (Example 15); format: cell-based; conditions: dose-responsive
Text: as §2

In the case of “CCACCCTCTGTCTGTCTCC (SEQ ID NO: 313) (all phosphorodiamidate morpholino (PMO)) [PMO 5, DMPK-targeting PMO, intron 1-2]”, the “% DMPK Knockdown in Primary Human Myotubes” value (shortened to “% DMPK Knockdown”) [1] is reported as 64%.
For “GGCCAAACCUCGGCUUACCUGAAAU (SEQ ID NO: 261) (PMO chemistry, chemistry not fully specified) [MDX-ASO, naked exon 23 skipping PMO ASO]”, the “average less distance traveled during stage (3) relative to stage (1), open field” value [2] was “about 85%”, the “distance traveled on running wheel during the dark period” value [3] was “traveled considerably shorter distances” and the creatine kinase activity [4] was “no significant benefit”.
For “TGGAGGGCCTTTTATTCGCGAGG (SEQ ID NO: 323) (all phosphorodiamidate morpholino (PMO)) [PMO 15, DMPK-targeting PMO, polyA]”, the “% DMPK Knockdown” value [1] was 66%.
In the case of “AGGTACTGAGAAGGGTTCGTC (SEQ ID NO: 319) (all phosphorodiamidate morpholino (PMO)) [PMO 11, DMPK-targeting PMO, Exon 5]”, the “% DMPK Knockdown” value [1] is reported as 40%.
“TAGGCACTCACCCACTGCAAGA (SEQ ID NO: 324) (all phosphorodiamidate morpholino (PMO)) [PMO 39, DMPK-targeting PMO, Exon 1]” was tested, and the “% DMPK Knockdown” value [1] was 69%.
For “GGGCATTTTAATATATCTCTGAACT (SEQ ID NO: 260) (PMO chemistry, chemistry not fully specified) [naked FM10, phosphorodiamidate morpholino oligomer (PMO) targeting DUX4]”, the “expression of three DUX4-associated genes” value [5] was “reduced”, the IC50 ([5]; MBD3L2 transcript, read-out: IC50 (nM), MBD3L2) was 1210 nM and the IC50 ([5]; TRIM43 transcript, read-out: IC50 (nM), TRIM43) was 1120 nM. For the same substance, the IC50 ([5]; ZSCAN4 transcript, read-out: IC50 (nM), ZSCAN4) was 643 nM, the “ZSCAN4, MBD3L2, and TRIM43 expression” value ([6]; 1 µM) was “fails to reduce” and the MDB3L2 expression ([6]; 10 µM) was “no effect”. For the same substance, the “ZSCAN4 and TRIM43 expression” value ([6]; 10 µM) was “modest reduction”.
Substance “anti-TfR1 antibody OKT9 (mouse IgG, control)” has a Kd [7] of 0.000536 µM and a kon [7] of 774000 M⁻¹ s⁻¹.
In the case of “TCCACCCTGACTCCAGGTGAC (SEQ ID NO: 310) (all phosphorodiamidate morpholino (PMO)) [PMO 2, DMPK-targeting PMO, intron 1-2]”, the “% DMPK Knockdown” value [1] is reported as 16%.
“TCCGCTGGGTGGTGGGAAAAGAA (SEQ ID NO: 314) (all phosphorodiamidate morpholino (PMO)) [PMO 6, DMPK-targeting PMO, Exon 2]” was tested, and the “% DMPK Knockdown” value [1] was 9%.
With “GCCTTTTATTCGCGAGGGTCGG (SEQ ID NO: 322) (all phosphorodiamidate morpholino (PMO)) [PMO 14, DMPK-targeting PMO, polyA]” the “% DMPK Knockdown” value [1] was 73%.
In the case of “ACGATGGGCTCCGCTGGG (SEQ ID NO: 316) (all phosphorodiamidate morpholino (PMO)) [PMO 8, DMPK-targeting PMO, Exon 2]”, the “% DMPK Knockdown” value [1] is reported as 60%.
In the case of “CCCAGCGCCCACCAGUCACA (SEQ ID NO: 330) (chemistry not given here) [DMPK-ASO-2, DMPK-targeting antisense oligonucleotide]”, the DMPK expression level [8] is reported as “reduced”, the “reduction of DMPK expression in DM1 myotubes” value (“reduction … in DM1 myotubes” for short) [9] is reported as “dose-dependently reducing DMPK” and the “reduction of DMPK expression in NHP myotubes” value (from here on “reduction … in NHP myotubes”) [10] is reported as “dose-dependently reducing DMPK”.
“CCTTCTCTCTGCCTCTCAGCTT (SEQ ID NO: 312) (all phosphorodiamidate morpholino (PMO)) [PMO 4, DMPK-targeting PMO, intron 1-2]” was tested, and the “% DMPK Knockdown” value [1] was 58%.
In the case of “ATGACCAGGTACTGAGAAGGG (SEQ ID NO: 318) (all phosphorodiamidate morpholino (PMO)) [PMO 10, DMPK-targeting PMO, Exon 5]”, the “% DMPK Knockdown” value [1] is reported as 33%.
For “GAGAAGGAAATAAGACCCAGTT (SEQ ID NO: 311) (all phosphorodiamidate morpholino (PMO)) [PMO 3, DMPK-targeting PMO, intron 1-2]”, the “% DMPK Knockdown” value [1] was 14%.
“GCCTAGGGACCTGCGGGAGAG (SEQ ID NO: 321) (all phosphorodiamidate morpholino (PMO)) [PMO 13, DMPK-targeting PMO, Exon 15]” was tested, and the “% DMPK Knockdown” value [1] was 62%.
For “TAGGGACCTGCGGAGAGGGCGA (SEQ ID NO: 320) (all phosphorodiamidate morpholino (PMO)) [PMO 12, DMPK-targeting PMO, Exon 15]”, the “% DMPK Knockdown” value [1] was 35%.
In the case of “CCAUCUCGGCCGGAAUCCGC (SEQ ID NO: 331) (chemistry not given here) [DMPK-ASO-3, DMPK-targeting antisense oligonucleotide]”, the DMPK expression level [8] is reported as “reduced”, the “reduction … in DM1 myotubes” value [9] is reported as “dose-dependently reducing DMPK” and the “reduction … in NHP myotubes” value [10] is reported as “dose-dependently reducing DMPK”.
In the case of “GCGUAGAAGGGCGUCUGCCC (SEQ ID NO: 329) (chemistry not given here) [DMPK-ASO-1, DMPK-targeting antisense oligonucleotide]”, the DMPK expression level [8] is reported as “reduced”, the “reduction … in DM1 myotubes” value [9] is reported as “dose-dependently reducing DMPK” and the “reduction … in NHP myotubes” value [10] is reported as “dose-dependently reducing DMPK”.
With “AGGGCAGTGCTTACCTGAGGG (SEQ ID NO: 326) (all phosphorodiamidate morpholino (PMO)) [PMO 41, DMPK-targeting PMO, Intron 9-10]” the “% DMPK Knockdown” value [1] was 57%.
“ATGGGCTCCGCTGGGTGGTGG (SEQ ID NO: 315) (all phosphorodiamidate morpholino (PMO)) [PMO 7, DMPK-targeting PMO, Exon 2]” was tested, and the “% DMPK Knockdown” value [1] was 11%.
For “CCATCCTTGGGCAGAGACCT (SEQ ID NO: 317) (all phosphorodiamidate morpholino (PMO)) [PMO 9, DMPK-targeting PMO, Intron 4-5]”, the “% DMPK Knockdown” value [1] was 41%.
“CGGAGCTCACCAGGTAGTTCT (SEQ ID NO: 325) (all phosphorodiamidate morpholino (PMO)) [PMO 40, DMPK-targeting PMO, Intron 4-5]” was tested, and the “% DMPK Knockdown” value [1] was 73%.
For “CAGGTGACAGTTCAGGTGCAG (SEQ ID NO: 309) (all phosphorodiamidate morpholino (PMO)) [PMO 1, DMPK-targeting PMO, intron 1-2]”, the “% DMPK Knockdown” value [1] was 59%.
